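Step 1: Grow cells in 96-well plates. Step 2: Expose to compound for 48 hours at 5 concentrations. Step 3: Interpolate endpoints linearly; if unreached, use highest concentration. GI50: concentration for 50% inhibition of growth. At the TGI there is no net growth.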
How the values were obtained:
Experiment in all cases: growth of human tumour cells (NCI), 48 h
M14 melanoma = tested on: M14 melanoma
IGROV1 ovarian = tested on: IGROV1 ovarian
UACC-62 melanoma = tested on: UACC-62 melanoma
SK-OV-3 ovarian = tested on: SK-OV-3 ovarian
HCC-2998 colon = tested on: HCC-2998 colon
A549 NSCLC = tested on: A549 NSCLC
DLD-1 colon = tested on: DLD-1 colon
UO-31 renal = tested on: UO-31 renal
NCI-H522 lung = tested on: NCI-H522 lung
SNB-75 CNS = tested on: SNB-75 CNS
SW-620 colon = tested on: SW-620 colon
NCI-H23 lung = tested on: NCI-H23 lung
KM20L2 colon = tested on: KM20L2 colon
SF-295 CNS = tested on: SF-295 CNS
TK-10 renal = tested on: TK-10 renal
SF-539 CNS = tested on: SF-539 CNS
OVCAR-8 ovarian = tested on: OVCAR-8 ovarian
HOP-92 NSCLC = tested on: HOP-92 NSCLC
RPMI-8226 leukemia = tested on: RPMI-8226 leukemia
SF-268 CNS = tested on: SF-268 CNS
EKVX NSCLC = tested on: EKVX NSCLC
ACHN renal = tested on: ACHN renal
CCRF-CEM leukemia = tested on: CCRF-CEM leukemia
MALME-3M melanoma = tested on: MALME-3M melanoma
OVCAR-3 ovarian = tested on: OVCAR-3 ovarian
HOP-62 NSCLC = tested on: HOP-62 NSCLC
COLO 205 colon = tested on: COLO 205 colon
M19-MEL melanoma = tested on: M19-MEL melanoma
SNB-19 CNS = tested on: SNB-19 CNS
NCI-H460 lung = tested on: NCI-H460 lung
OVCAR-4 ovarian = tested on: OVCAR-4 ovarian
HL-60(TB) leukemia = tested on: HL-60(TB) leukemia
SNB-78 CNS = tested on: SNB-78 CNS
DMS 114 small cell lung = tested on: DMS 114 small cell lung
HCT-15 colon = tested on: HCT-15 colon
UACC-257 melanoma = tested on: UACC-257 melanoma
SK-MEL-28 melanoma = tested on: SK-MEL-28 melanoma
MOLT-4 leukemia = tested on: MOLT-4 leukemia
U251 CNS = tested on: U251 CNS
HCT-116 colon = tested on: HCT-116 colon
786-0 renal = tested on: 786-0 renal
K-562 leukemia = tested on: K-562 leukemia
OVCAR-5 ovarian = tested on: OVCAR-5 ovarian
SK-MEL-2 melanoma = tested on: SK-MEL-2 melanoma
SK-MEL-5 melanoma = tested on: SK-MEL-5 melanoma
RXF 393 renal = tested on: RXF 393 renal
A498 renal = tested on: A498 renal
KM12 colon = tested on: KM12 colon
LOX IMVI melanoma = tested on: LOX IMVI melanoma
HT29 colon = tested on: HT29 colon
SN12C renal = tested on: SN12C renal
HOP-18 NSCLC = tested on: HOP-18 NSCLC
CAKI-1 renal = tested on: CAKI-1 renal
DMS 273 small cell lung = tested on: DMS 273 small cell lung
LXFL 529 NSCLC = tested on: LXFL 529 NSCLC
NCI-H226 lung = tested on: NCI-H226 lung

O=C(Nc1cc([N+](=O)[O-])cc([N+](=O)[O-])c1)OC1C2CCC1C1OC1C2 (centres undefined)
TGI (M14 melanoma): > 50 µM | TGI (IGROV1 ovarian): > 50 µM | TGI (UACC-62 melanoma): > 50 µM | TGI (SK-OV-3 ovarian): > 50 µM | TGI (HCC-2998 colon): > 50 µM | TGI (A549 NSCLC): > 50 µM | TGI (DLD-1 colon): > 50 µM | TGI (UO-31 renal): > 50 µM | TGI (NCI-H522 lung): > 50 µM | TGI (SNB-75 CNS): > 50 µM | TGI (SW-620 colon): > 50 µM | TGI (NCI-H23 lung): > 50 µM | TGI (KM20L2 colon): > 50 µM | TGI (SF-295 CNS): > 50 µM | TGI (TK-10 renal): > 50 µM | TGI (SF-539 CNS): > 50 µM | TGI (OVCAR-8 ovarian): > 50 µM | TGI (HOP-92 NSCLC): > 50 µM | TGI (RPMI-8226 leukemia): > 50 µM | TGI (SF-268 CNS): > 50 µM | TGI (EKVX NSCLC): > 50 µM | TGI (ACHN renal): > 50 µM | TGI (CCRF-CEM leukemia): > 50 µM | TGI (MALME-3M melanoma): > 50 µM | TGI (OVCAR-3 ovarian): > 50 µM | TGI (HOP-62 NSCLC): > 50 µM | TGI (COLO 205 colon): > 50 µM | TGI (M19-MEL melanoma): > 50 µM | TGI (SNB-19 CNS): > 50 µM | TGI (NCI-H460 lung): > 50 µM | TGI (OVCAR-4 ovarian): > 50 µM | TGI (HL-60(TB) leukemia): > 50 µM | TGI (SNB-78 CNS): > 50 µM | TGI (DMS 114 small cell lung): > 50 µM | TGI (HCT-15 colon): > 50 µM | TGI (UACC-257 melanoma): > 50 µM | TGI (SK-MEL-28 melanoma): > 50 µM | TGI (MOLT-4 leukemia): > 50 µM | TGI (U251 CNS): > 50 µM | TGI (HCT-116 colon): > 50 µM | TGI (786-0 renal): > 50 µM | TGI (K-562 leukemia): > 50 µM | TGI (OVCAR-5 ovarian): > 50 µM | TGI (SK-MEL-2 melanoma): > 50 µM | TGI (SK-MEL-5 melanoma): > 50 µM | TGI (RXF 393 renal): > 50 µM | TGI (A498 renal): > 50 µM | TGI (KM12 colon): > 50 µM

CC(=O)[CH-]C(=O)c1ccccc1.CC(=O)[CH-]C(=O)c1ccccc1.CC12CC3(C)CC(C)(C1)CC([O-])(C2)C3.CC[O-].[Ti+4]
GI50 (M14 melanoma): 16.9 µM | TGI (M14 melanoma): 32.8 µM | GI50 (IGROV1 ovarian): 40.9 µM | TGI (IGROV1 ovarian): > 100 µM | GI50 (UACC-62 melanoma): 18.5 µM | TGI (UACC-62 melanoma): 45.2 µM | GI50 (SK-OV-3 ovarian): 23.1 µM | TGI (SK-OV-3 ovarian): > 100 µM | GI50 (A549 NSCLC): 29.5 µM | TGI (A549 NSCLC): > 100 µM | GI50 (LOX IMVI melanoma): 13.2 µM | TGI (LOX IMVI melanoma): 31.1 µM | GI50 (DLD-1 colon): 17 µM | TGI (DLD-1 colon): 78.6 µM | GI50 (HT29 colon): 27 µM | TGI (HT29 colon): > 100 µM | GI50 (UO-31 renal): 16 µM | TGI (UO-31 renal): 57.5 µM | GI50 (NCI-H522 lung): 21.2 µM | TGI (NCI-H522 lung): 44.6 µM | GI50 (SNB-75 CNS): 14.3 µM | TGI (SNB-75 CNS): 29.4 µM | GI50 (SW-620 colon): 32.4 µM | TGI (SW-620 colon): > 100 µM | GI50 (NCI-H23 lung): 18.1 µM | TGI (NCI-H23 lung): 34.4 µM | GI50 (KM20L2 colon): 35.2 µM | TGI (KM20L2 colon): > 100 µM | GI50 (SF-295 CNS): 33.4 µM | TGI (SF-295 CNS): > 100 µM | GI50 (TK-10 renal): 26.7 µM | TGI (TK-10 renal): 62.1 µM | GI50 (SF-539 CNS): 17.5 µM | TGI (SF-539 CNS): 38.5 µM | GI50 (OVCAR-8 ovarian): 27.7 µM | TGI (OVCAR-8 ovarian): > 100 µM | GI50 (HOP-92 NSCLC): 19.1 µM | TGI (HOP-92 NSCLC): 55.3 µM | GI50 (RPMI-8226 leukemia): 8.54 µM | TGI (RPMI-8226 leukemia): 95.5 µM | GI50 (SN12C renal): 43.5 µM | TGI (SN12C renal): > 100 µM | GI50 (SF-268 CNS): 18.6 µM | TGI (SF-268 CNS): 45.4 µM | GI50 (ACHN renal): 38.7 µM | TGI (ACHN renal): > 100 µM | GI50 (CCRF-CEM leukemia): 28.7 µM | TGI (CCRF-CEM leukemia): > 100 µM | GI50 (MALME-3M melanoma): 17.5 µM | TGI (MALME-3M melanoma): 47 µM | GI50 (OVCAR-3 ovarian): 25.6 µM | TGI (OVCAR-3 ovarian): > 100 µM | GI50 (HOP-62 NSCLC): 22.3 µM | TGI (HOP-62 NSCLC): 53.3 µM | GI50 (COLO 205 colon): 19.4 µM | TGI (COLO 205 colon): 40.2 µM | GI50 (SNB-19 CNS): 20.9 µM | TGI (SNB-19 CNS): 45.2 µM | GI50 (NCI-H460 lung): 16.8 µM | TGI (NCI-H460 lung): 46 µM | GI50 (OVCAR-4 ovarian): 17.9 µM | TGI (OVCAR-4 ovarian): 53.3 µM | GI50 (HL-60(TB) leukemia): 27.8 µM | TGI (HL-60(TB) leukemia): > 100 µM | GI50 (UACC-257 melanoma): 27.9 µM | TGI (UACC-257 melanoma): 76.1 µM | GI50 (SK-MEL-28 melanoma): 17 µM | TGI (SK-MEL-28 melanoma): 38.2 µM | GI50 (HOP-18 NSCLC): 37.4 µM | TGI (HOP-18 NSCLC): > 100 µM | GI50 (MOLT-4 leukemia): 28.9 µM | TGI (MOLT-4 leukemia): > 100 µM | GI50 (U251 CNS): 13.5 µM | TGI (U251 CNS): 27.9 µM | GI50 (HCT-116 colon): 18.8 µM | TGI (HCT-116 colon): 50.6 µM | GI50 (CAKI-1 renal): 42.9 µM | TGI (CAKI-1 renal): > 100 µM | GI50 (786-0 renal): 29.3 µM | TGI (786-0 renal): > 100 µM | GI50 (DMS 273 small cell lung): 33.4 µM | TGI (DMS 273 small cell lung): > 100 µM | GI50 (K-562 leukemia): 34.4 µM | TGI (K-562 leukemia): > 100 µM | GI50 (SK-MEL-5 melanoma): 30.8 µM | TGI (SK-MEL-5 melanoma): 64.4 µM | GI50 (A498 renal): 21.3 µM | TGI (A498 renal): 44.5 µM | GI50 (KM12 colon): 18.3 µM | TGI (KM12 colon): 35.2 µM

CCc1ccccc1NC(=O)C1=C(C)NC(C)=C(C(=O)Nc2ccccc2CC)C1c1ccc(NC(C)=O)cc1
TGI (M14 melanoma): > 100 µM | TGI (IGROV1 ovarian): > 100 µM | TGI (SK-OV-3 ovarian): > 100 µM | TGI (HCC-2998 colon): 48.6 µM | TGI (A549 NSCLC): > 100 µM | TGI (LOX IMVI melanoma): 44.2 µM | TGI (DLD-1 colon): 87.6 µM | TGI (HT29 colon): > 100 µM | TGI (UO-31 renal): > 100 µM | TGI (NCI-H522 lung): 71.1 µM | TGI (SNB-75 CNS): > 100 µM | TGI (SW-620 colon): > 100 µM | TGI (NCI-H23 lung): > 100 µM | TGI (KM20L2 colon): 58.8 µM | TGI (LXFL 529 NSCLC): 87.2 µM | TGI (SF-295 CNS): > 100 µM | TGI (TK-10 renal): > 100 µM | TGI (SF-539 CNS): 68 µM | TGI (OVCAR-8 ovarian): > 100 µM | TGI (HOP-92 NSCLC): 90.6 µM | TGI (RPMI-8226 leukemia): 48.9 µM | TGI (SN12C renal): > 100 µM | TGI (SF-268 CNS): > 100 µM | TGI (NCI-H226 lung): > 100 µM | TGI (EKVX NSCLC): > 100 µM | TGI (ACHN renal): > 100 µM | TGI (CCRF-CEM leukemia): 65.8 µM | TGI (MALME-3M melanoma): > 100 µM | TGI (OVCAR-3 ovarian): > 100 µM | TGI (HOP-62 NSCLC): 92.8 µM | TGI (COLO 205 colon): > 100 µM | TGI (M19-MEL melanoma): > 100 µM | TGI (SNB-19 CNS): > 100 µM | TGI (NCI-H460 lung): > 100 µM | TGI (OVCAR-4 ovarian): > 100 µM | TGI (HL-60(TB) leukemia): 39.5 µM | TGI (SNB-78 CNS): 82.1 µM | TGI (DMS 114 small cell lung): > 100 µM | TGI (UACC-257 melanoma): > 100 µM | TGI (SK-MEL-28 melanoma): 52.9 µM | TGI (MOLT-4 leukemia): 54.4 µM | TGI (U251 CNS): > 100 µM | TGI (HCT-116 colon): > 100 µM | TGI (CAKI-1 renal): > 100 µM | TGI (786-0 renal): > 100 µM | TGI (K-562 leukemia): 77.9 µM | TGI (OVCAR-5 ovarian): > 100 µM | TGI (SK-MEL-2 melanoma): 70.1 µM | TGI (SK-MEL-5 melanoma): > 100 µM | TGI (RXF 393 renal): 65 µM | TGI (KM12 colon): > 100 µM

Source: PubChem BioAssay (NCI)
